Assay results published in PubChem BioAssay (NCI).
Several values for one entry are separate records, joined by “and”; a condition that tells them apart may be missing. Equal entries are not always repeated.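 Protocol summary: plate cells (96-well), add compound at 5 concentrations, incubate 48 h, interpolate endpoints linearly. Abbreviation: GI50, concentration required for 50% inhibition of growth. At the TGI there is no net growth.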

How the values were obtained:
Assay in all cases: inhibition of tumour cell growth, NCI panel, 48 h
786-0 renal = tested on: 786-0 renal
A498 renal = tested on: A498 renal
DU-145 prostate = tested on: DU-145 prostate
HS 578T breast = tested on: HS 578T breast
HT29 colon = tested on: HT29 colon
M14 melanoma = tested on: M14 melanoma
MDA-MB-435 = tested on: MDA-MB-435
OVCAR-3 ovarian = tested on: OVCAR-3 ovarian
PC-3 prostate = tested on: PC-3 prostate
SF-268 CNS = tested on: SF-268 CNS
SNB-75 CNS = tested on: SNB-75 CNS

Compound	TGI (786-0 renal) [µM]	TGI (A498 renal)	TGI (DU-145 prostate) [µM]	TGI (HS 578T breast) [µM]	TGI (HT29 colon)	TGI (M14 melanoma) [µM]	TGI (MDA-MB-435) [µM]	TGI (OVCAR-3 ovarian) [µM]	TGI (PC-3 prostate) [µM]	TGI (SF-268 CNS) [µM]	TGI (SNB-75 CNS) [µM]	GI50 (A498 renal)	GI50 (HT29 colon)	GI50 (SNB-75 CNS)	GI50 (DU-145 prostate) [µM]	GI50 (HS 578T breast) [µM]	GI50 (MDA-MB-435) [µM]	GI50 (OVCAR-3 ovarian) [µM]	GI50 (PC-3 prostate) [µM]	GI50 (SF-268 CNS) [µM]
CCOC(=O)/C=C(/C(=O)OCC)n1c(=O)c(C)cn(C2CC(N=[N+]=[N-])C(CO)O2)c1=O (configuration not stated)	72	> 100 µM	> 100	> 100	> 100 µM	> 100	> 100	50.3	32.8	> 100	> 100	–	–	–	–	–	–	–	–	–
O=C(NN=C1CCCCC1)Nc1ccccc1Cl	> 100	–	> 100	> 100	> 100 µM	> 100	47.5	38.8	> 100	> 100	29.6	–	–	–	–	–	–	–	–	–
O=C1c2ccccc2C2(c3ccc(Cl)cc3)NCc3ccccc3CN12 (configuration not stated)	26.4	42.8 µM	50.3	56.7	28.5 µM	34	> 100	26.6	51.3	> 100	> 100	–	–	–	–	–	–	–	–	–
COC(=O)C[C@H](COCc1ccccc1)NC(=O)C[C@H](COCc1ccccc1)NC(=O)C[C@H](COCc1ccccc1)NC(=O)OC(C)(C)C	72.9	67.1 µM	> 100	> 100	> 100 µM	> 100	> 100	> 100	41.2	> 100	38	–	–	–	–	–	–	–	–	–
COC(=O)C1(NC(=O)C(N)CC(=O)O)C(C)C1C (configuration not stated)	> 100	> 100 µM	> 100	> 100	> 100 µM	> 100	> 100	> 100	> 100	> 100	> 100	–	–	–	–	–	–	–	–	–
O=C(Nc1ccc2ccccc2c1)Nn1cnnc1	> 100	> 100 µM	> 100	> 100	> 100 µM	> 100	> 100	> 100	> 100	> 100	> 100	–	–	–	–	–	–	–	–	–
COC(=O)C1=C(OC(=O)/C(=C/c2ccc(Cl)cc2)c2ccccc2)C(C(=O)OC)[C@@]2(O)[C@@H](C(=O)OC)[C@H](C)C[C@@H]1[C@@H]2C(=O)OC (some centres not stated)	> 100	> 100 µM	> 100	> 100	> 100 µM	> 100	> 100	> 100	> 100	> 100	> 100	–	–	–	–	–	–	–	–	–
CC(C)OC(=O)c1ccc(CCC2=CC(=O)C(Br)=CC2=O)cc1	30.2	> 85 µM	63.3	38.1	31.8 µM	31.2	32.9	29	31.8	32.3	32.5	–	–	–	–	–	–	–	–	–
O=C1c2ccccc2C(=O)N1C(=S)c1ccccc1	> 100	–	> 100	> 100	> 100 µM	> 100	> 100	> 100	> 100	> 100	> 100	–	–	–	–	–	–	–	–	–
O=C(c1ccc(Cl)cc1)N1N=C(c2ccc(Cl)cc2)CC1(O)c1cc(F)c(Cl)cc1Cl (configuration not stated)	> 100	58.6 µM	> 100	> 100	72.5 µM	78.3	39.5	55.6	> 100	> 100	44.5	–	–	–	–	–	–	–	–	–
O=C1C[C@H](c2ccccc2)C2(C(=O)c3ccccc3C2=O)[C@@H](c2ccccc2)C1	–	> 100 µM	> 100	> 100	> 100 µM	95.9	–	> 100	> 100	–	> 100	–	–	–	–	–	–	–	–	–
CCCCCC(/C=C/[C@@H]1CC(=O)C[C@H]1O[Si](C)(C)C(C)(C)C)OCOCCOC (some centres not stated)	14.3	18.1 µM	32.8	8.04	10.1 µM	19.5	4.64	11.3	14.1	10.5	11.5	–	–	–	–	–	–	–	–	–
N#CSCC1COc2ccccc2O1 (configuration not stated)	–	> 10 µM	> 10	> 10	> 10 µM	> 10	> 10	> 10	> 10	> 10	> 10	–	–	–	–	–	–	–	–	–
Cc1nc2ccccc2c(=O)n1NC(=O)Cc1ccccc1	> 100	> 100 µM	> 100	> 100	> 100 µM	> 100	> 100	> 100	> 100	> 100	> 100	–	–	–	–	–	–	–	–	–
O=C1C=CC2(O[C@@H](Cc3ccccc3)[C@H](Cc3ccccc3)O2)C(SC(=O)c2ccccc2)C1 (some centres not stated)	0.399	16.2 µM	11.8	4.57	3.08 µM	2.99	5.46	2.24	3.69	2.44	3.41	–	–	–	–	–	–	–	–	–
CC(/C=N/NC1=NCCCCN1)=N\NC1=NCCCCN1	> 100	–	–	> 100	> 100 µM	38.7	> 100	> 100	> 100	> 100	> 100	–	–	–	–	–	–	–	–	–
CC(NC(=O)C(C)C(=O)NCc1ccc(C(F)(F)F)cc1)C(N)=O (configuration not stated)	> 100	–	> 100	> 100	> 100 µM	> 100	> 100	–	> 100	> 100	> 100	–	–	–	–	–	–	–	–	–
Cc1cc(=O)c2c(O)c3c(O)cc(O)c4c5c(O)cc(O)c6c(O)c7c(=O)cc(C)c8c1c2c(c34)c(c65)c78	> 100	> 100 µM and 75.6 µM	> 100	> 100	> 100 µM and 43.2 µM	> 100	> 100	> 100	> 100	> 100	> 100	64.9 µM and 28.9 µM	> 100 µM and 19.2 µM	> 100 µM and 32.3 µM	–	–	–	–	–	–
Cc1cccc2c(N)c3cccc(C(=O)NCC[N+](C)(C)Cc4sc(N5CCOCC5)nc4[N+](=O)[O-])c3nc12	6.24	37.3 µM	> 100	28.5	2.74 µM	15	35.2	14.6	16.8	> 100	22.7	–	–	–	–	–	–	–	–	–
Cc1nnc(N)nc1/C=C\c1cccs1	52.1	49.7 µM	> 100	> 100	41.4 µM	36.9	74.9	–	56.4	37.8	–	–	–	–	–	–	–	–	–	–
C/C=C/C=C/C1=NN(c2cccc(S(=O)(=O)O)c2)C2(C1)SCC(=O)N2c1nc2ccccc2s1 (configuration not stated)	42.3	> 100 µM	> 100	> 100	> 100 µM	> 100	> 100	–	> 100	> 100	> 100	–	–	–	–	–	–	–	–	–

Compound	TGI (786-0 renal) [µM]	TGI (A498 renal)	TGI (DU-145 prostate) [µM]	TGI (HS 578T breast) [µM]	TGI (HT29 colon)	TGI (M14 melanoma) [µM]	TGI (MDA-MB-435) [µM]	TGI (OVCAR-3 ovarian) [µM]	TGI (PC-3 prostate) [µM]	TGI (SF-268 CNS) [µM]	TGI (SNB-75 CNS) [µM]	GI50 (A498 renal)	GI50 (HT29 colon)	GI50 (SNB-75 CNS)	GI50 (DU-145 prostate) [µM]	GI50 (HS 578T breast) [µM]	GI50 (MDA-MB-435) [µM]	GI50 (OVCAR-3 ovarian) [µM]	GI50 (PC-3 prostate) [µM]	GI50 (SF-268 CNS) [µM]
Cc1ccccc1NC(=S)N/N=C(/c1ccccc1)c1ccccn1	10.8	10.2 µM	18.3	31.2	15.8 µM	1.91	14.2	10.5	13.6	14.8	17.4	–	–	–	–	–	–	–	–	–
CCN(CC)C(=S)SNCCc1ccc(S(N)(=O)=O)cc1	27.8	> 65.1 µM	33.8	53.1	27.1 µM	23.1	29.6	43.9	26.9	35.9	27	–	–	–	–	–	–	–	–	–
C1OCN2c3nonc3N3COCN4c5nonc5N1C2C43 (configuration not stated)	> 100	> 100 µM	> 100	> 100	> 100 µM	> 100	> 100	> 100	> 100	> 100	> 100	–	–	–	–	–	–	–	–	–
CC1CCC2c3c([nH]c4ccccc34)C3C(=O)N(C4CCCCC4)C(=O)C3C2C1 (configuration not stated)	19.6	37.9 µM	> 100	57.4	> 100 µM	59.3	> 100	39.8	> 100	29.8	8.51	–	–	–	–	–	–	–	–	–
Cc1ccc([N+](=O)[O-])cc1S(=O)(=O)Nc1ccc(C2=NN(c3ccc([N+](=O)[O-])cc3[N+](=O)[O-])C(c3ccccc3O)C2)cc1 (configuration not stated)	> 100	–	> 100	> 100	> 100 µM	> 100	> 100	61.3	> 100	> 100	> 100	–	–	–	–	–	–	–	–	–
Cc1ccc(O)c(Cc2nc3ccccc3nc2-c2cccc(Br)c2)c1	> 100	–	> 100	66.8	> 100 µM	> 100	> 100	> 100	> 100	> 100	> 100	–	–	–	–	–	–	–	–	–
COc1ccc(OC)c(CNc2ccc(O)c(C(=O)NCCc3ccc(F)cc3)c2)c1	68.4	59.9 µM	34.5	> 100	47.5 µM	26.8	8.34	28.8	32.1	29.1	–	–	–	–	–	–	–	–	–	–
Oc1c(I)cc(I)cc1CNCCCN(Cc1ccccn1)Cc1ccccn1	–	1.32 µM	4.63	4.53	10.2 µM	–	2	1.85	3.02	3.21	4.32	0.661 µM	1.74 µM	0.836 µM	1.51	1.38	0.997	0.948	1.17	1.18
C=C(C)CC1=C(C(=S)NCCO[Si](C)(C)C(C)(C)C)C(OCC)(OCC)C1=O	33.1	40.5 µM	76.3	> 100	> 100 µM	35	41.9	–	29.4	47.4	36.8	–	–	–	–	–	–	–	–	–
CC(=O)c1ccc2c(c1)oc(=O)n2CCN(C)C	> 100	> 100 µM	–	> 100	> 100 µM	> 100	> 100	> 100	> 100	> 100	> 100	–	–	–	–	–	–	–	–	–
O=C(NCCO)c1c(O)c2ccccc2[nH]c1=O	> 100	> 100 µM	> 100	> 100	> 100 µM	–	> 100	> 100	> 100	> 100	> 100	–	–	–	–	–	–	–	–	–
COC(=O)c1ccc(C)cc1C1CN=NC12Cc1cc(C)c(C)cc1C2=O (configuration not stated)	> 100	> 100 µM	> 100	> 100	> 100 µM	> 100	96.6	> 100	–	> 100	> 100	–	–	–	–	–	–	–	–	–
Cc1cc2nc3n(c2cc1C)C(c1c(F)cccc1F)SC3 (configuration not stated)	43.4	–	–	54.2	38.9 µM	40.8	30.9	91.2	> 100	56.2	> 100	–	–	–	–	–	–	–	–	–
[N-]=[N+]=C1CNC(=O)NC1=O	> 100	–	> 100	> 100	> 100 µM	> 100	> 100	> 100	> 100	> 100	> 100	–	–	–	–	–	–	–	–	–
c1ccc(C(=NNc2nc3ccccc3[nH]2)c2ccccn2)nc1	> 100	4.94 µM	> 100	> 100	12.1 µM	1.84	> 74	> 100	5.43	> 55.3	–	–	–	–	–	–	–	–	–	–
CN(C)CCCNC(=O)c1cc(NC(=O)c2cc(NC(=O)c3cc(NC(=O)CCCn4ccc(CO)c4CO)cn3C)cn2C)cn1C	> 100	–	> 100	98.2	–	–	47.7	44.7	> 100	> 100	44.4	–	–	–	–	–	–	–	–	–
CCC(=N\NC(N)=S)/C(C)=N/O	> 100	–	> 100	> 100	> 100 µM	> 100	> 100	> 100	> 100	> 100	–	–	–	–	–	–	–	–	–	–
CCCCCCC(CCl)c1sc(-c2csc(CCNC(=O)OC(C)(C)C)n2)nc1C(=O)OC (configuration not stated)	75.9	> 100 µM	> 100	65.9	51.2 µM	–	30.4	86.8	63.8	52.4	–	–	–	–	–	–	–	–	–	–
c1ccc(C(CCN2CCCC2)c2ccccn2)cc1 (configuration not stated)	> 100	> 100 µM	> 100	> 100	> 100 µM	> 100	> 100	–	> 100	> 100	> 100	–	–	–	–	–	–	–	–	–
Cc1cc(NC2=NCCO2)c2c(c1C)CCCC2	43	49.8 µM	> 100	> 100	49.7 µM	28.1	39.5	–	–	54.7	67.5	–	–	–	–	–	–	–	–	–
